Values of other authors as cited in patent US7524881B2, “Production of Δ 9 tetrahydrocannabinol” (Resolution Chemicals Limited, priority 2002, dated 2009).

Conditions: for psychomimetic activity: qualitative background statement

Row | Compound | psychomimetic activity | psychomimetic activity relative to Δ8-THC (compared with Δ8-THC) [times]
1 | C=C(C)[C@@H]1CCC(C)=C[C@H]1c1c(O)cc(CCCCC)cc1O [Cannabidiol (CBD), cannabidiol] | little activity | 
2 | CCCCCc1cc2c(c(O)c1C(=O)O)[C@@H]1C=C(C)CC[C@H]1C(C)(C)O2 [THCA-A, Δ9-THC carboxylic acid] | psychomimetically inactive | 
3 | CCCCCc1cc2c(c(O)c1C(=O)O)[C@@H]1C=C(C)CC[C@H]1C(C)(C)O2 [THCA-B, Δ9-THC carboxylic acid] | psychomimetically inactive | 
4 | CCCCCc1cc(O)c2c(c1)OC(C)(C)[C@@H]1CCC(C)=C[C@@H]21 [Δ9-THC, Delta 9 tetrahydrocannabinol] |  | 20
